According to patent US11377501B2, “Peptide having high affinity for PD-L1 protein and use thereof” (priority 2017, dated 2022):
“Also recorded” adds a separate entry of the source. Where no end group is shown, it is not given here.

Columns and labels:
PD-1/PD-L1 = PD-1/PD-L1 (Homo sapiens, UniProt Q9NZQ7); test: Competitive binding ELISA between PPLC peptide and PD-1 to PD-L1 protein; details: 2 μg/ml coated PD-L1, 1 μg/ml PD-1 protein
Method: A 96-well ELISA plate was coated with 2 μg/ml PD-L1 protein at 4° C. overnight. Different concentrations of PPLC peptide and 1 μg/ml PD-1 protein were mixed and incubated together. After incubation, rabbit anti-human PD-1 monoclonal antibody was added as primary antibody, and then HRP-conjugated goat anti-rabbit IgG monoclonal antibody was added as secondary antibody. After ABTS color development, the OD value at 410 nm was measured using a M5 microplate reader, and GraphPad Prism 6 was used for plotting and analysis.
A 96-well ELISA plate was coated with 2 μg/ml PD-L1 protein at 4° C. overnight. Different concentrations of PPLC peptide and 1 μg/ml of PD-1 protein were mixed and incubated together. After incubation, rabbit anti-human PD-1 monoclonal antibody was added as primary antibody, and then HRP-conjugated goat anti-rabbit IgG monoclonal antibody was added as secondary antibody. After ABTS color development, the OD value at 410 nm was measured using a M5 microplate reader, and GraphPad Prism 6 was used for plotting and analysis.

[1] = molecular target: T1, recombinant human PD-L1 protein expressed on CHO cell surface (Homo sapiens, UniProt Q9NZQ7); test: Binding of FITC-labeled PPLC peptide to PD-L1 expressed on CHO cell surface (flow cytometry, fluorescence confocal); type: cell-based; details: CHO cells transfected with human PD-L1, FITC-labeled peptide, flow cytometry and confocal
T1 construct: expressed in transfected cells; host or cells: CHO cell line
T1 sequence (Q9NZQ7 19-290): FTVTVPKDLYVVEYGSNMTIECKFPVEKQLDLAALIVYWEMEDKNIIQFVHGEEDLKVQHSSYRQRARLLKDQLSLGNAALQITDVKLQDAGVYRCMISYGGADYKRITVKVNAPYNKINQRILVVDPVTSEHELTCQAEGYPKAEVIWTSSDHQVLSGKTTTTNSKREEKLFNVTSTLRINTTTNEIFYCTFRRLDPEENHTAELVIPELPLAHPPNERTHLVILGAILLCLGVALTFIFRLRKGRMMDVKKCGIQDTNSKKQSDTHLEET
Method: The recombinant plasmid expressing recombinant human PD-L1 protein was transfected into CHO cell line and incubated for 36 hours. After incubation, anti-PD-L1 monoclonal antibody or PPLC peptide labeled with FITC was added and incubated at 4° C. for 30 minutes. After incubation, flow cytometry was performed (FIG. 3). After transfection of the plasmid, the cells were further cultured for 36 hours, and then the PPLC peptide labeled with FITC was added and incubated at 37° C. for 30 minutes. After incubation, fluorescence confocal detection was performed (FIG. 4).
The recombinant plasmid expressing recombinant human PD-L1 protein was transfected into CHO cell line and incubated for 36 hours. After incubation, anti-PD-L1 monoclonal antibody or PPLC peptide labeled with FITC was added, and incubated at 4° C. for 30 minutes. After incubation, flow cytometry was performed. After transfection of the plasmid, the cells were further cultured for 36 hours, and then the PPLC peptide labeled with FITC was added, and incubated at 37° C. for 30 minutes. After incubation, fluorescence confocal detection was performed.

mouse tumor = test: Effect of PPLC peptide on tumor volume and survival in mouse tumor model; type: in vivo; details: subcutaneous tumors in female Balb/c mice
Method: The experimental animals were divided into two groups: PBS group and PPLC group. Tumors were injected subcutaneously into 6 weeks old female Balb/c mice. Two weeks later, when the tumor size reached 100 mm^3, PPLC drug treatment was performed. The size of the mouse tumor was measured daily and the change was recorded.
The experimental animals were divided into two groups: PBS group and PPLC group. Tumors were injected subcutaneously into female Balb/c mice. Two weeks later, when the tumor size reached 100 mm^3, PPLC drug treatment was performed. The size of the mouse tumor was measured daily and the change was recorded.

PD-1/PD-L1, sequence (Q9NZQ7 19-238 limits assumed): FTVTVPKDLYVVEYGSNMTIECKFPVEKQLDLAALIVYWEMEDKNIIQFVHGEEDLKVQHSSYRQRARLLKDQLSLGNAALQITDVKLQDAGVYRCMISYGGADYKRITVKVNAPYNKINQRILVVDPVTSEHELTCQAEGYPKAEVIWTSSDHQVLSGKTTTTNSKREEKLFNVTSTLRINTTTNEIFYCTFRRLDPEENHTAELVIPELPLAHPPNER

## VSVSHFQKVWVV [PPLC]
PD-1/PD-L1
  blocking of the binding of PD-1/PD-L1: can effectively block the binding of PD-1/PD-L1
[1]
  binding to PD-L1 protein expressed on the cell surface: can efficiently bind to the PD-L1 protein expressed on the cell surface; also recorded: has a high affinity for PD-L1 expressed on the surface of CHO cells
Mouse tumor; treatment from tumor size 100 mm^3, versus PBS group
  growth rate of mouse tumor / tumor size: can significantly reduce the growth rate of mouse tumor; also recorded: significantly smaller than that of the control group
Mouse tumor; versus PBS group
  survival time of mice: prolong the survival time of mice
